{"source": "paper PMC7794231", "about": "(2021)", "key": {"[1]": {"test_system": "c-Myc (DNA, G4) TGAGGGTGGGTAGGGTGGGTAA", "assay": "fluorescence lifetime displacement assay (TCSPC)", "details": "100 mM KCl (K+), 10 mM lithium cacodylate (Li+), pH 7.3, 2 µM DAOTA-M2 displaced, 4 µM c-Myc"}, "[2]": {"test_system": "ds26 (DNA, duplex) CAATCGGATCGAATTCGATCCGATTG", "assay": "fluorescence lifetime (TCSPC)", "details": "100 mM KCl (K+), 10 mM lithium cacodylate (Li+) (buffer part); Xenopus egg extract 33 µL + 12 µL buffer; 2 µM DAOTA-M2, 44 µM ds26; 21 °C; lifetime 6.1 ns"}, "[3]": {"test_system": "c-Myc (DNA, G4) TGAGGGTGGGTAGGGTGGGTAA", "assay": "fluorescence lifetime (TCSPC)", "details": "100 mM KCl (K+), 10 mM lithium cacodylate (Li+); pH 7.3; 2 µM DAOTA-M2, 4 µM c-Myc, 20 µM CT-DNA present; lifetime 6.1 to 11.7 ns"}}, "data": [{"smiles": "N=C(N)c1ccc(-c2cc3ccc(C(=N)N)cc3[nH]2)cc1", "values": [{"measurement": "binding", "setting": "[1]; 20 µM CT-DNA present, small lifetime drop", "value": "no"}]}, {"smiles": "NCCOc1cc(C(=O)Nc2cc(OCCN)c3ccccc3n2)nc(C(=O)Nc2cc(OCCN)c3ccccc3n2)c1", "values": [{"measurement": "binding", "setting": "[1]; 20 µM CT-DNA present, PDS to 14.4 µM", "value": "yes"}]}, {"smiles": "[Cu+2].[O-]c1cc(OCCN2CCCCC2)ccc1/C=N/c1ccccc1/N=C/c1ccc(OCCN2CCCCC2)cc1[O-]", "values": [{"measurement": "binding", "setting": "[1]", "value": "yes"}]}, {"smiles": "[Ni+2].[O-]c1cc(OCCN2CCCCC2)ccc1/C=N/c1ccccc1/N=C/c1ccc(OCCN2CCCCC2)cc1[O-]", "values": [{"measurement": "binding", "setting": "[1]", "value": "yes"}]}, {"smiles": "[O-2].[O-]c1cc(OCCN2CCCCC2)ccc1/C=N/c1ccccc1/N=C/c1ccc(OCCN2CCCCC2)cc1[O-].[V+4]", "values": [{"measurement": "binding", "setting": "[1]", "value": "yes"}]}, {"smiles": "[O-]c1cc(OCCN2CCCCC2)ccc1/C=N/c1ccccc1/N=C/c1ccc(OCCN2CCCCC2)cc1[O-].[Zn+2]", "values": [{"measurement": "binding", "setting": "[1]", "value": "weak"}]}, {"smiles": "c1cc2oc3cccc4c3[c+]3c2c(c1)n(CCN1CCOCC1)c1cccc(c13)n4CCN1CCOCC1", "values": [{"measurement": "binding", "setting": "[2]", "value": "yes"}, {"measurement": "binding", "setting": "[3]", "value": "yes"}]}]}
